Measured values taken from US5110976A, “Insecticidal composition comprising more than one active ingredient” (priority 1985, dated 1992).

Columns and labels:
Myzus persicae = experiment: 5 EC formulations on aphid-infected bean plants (Table 22); type: in vivo, green peach aphids (Myzus persicae)
Experimental: 15 bean plants infected with green peach aphids (Myzus persicae) at 6 days' age are cultivated in each pot. At 12 days' age the strongly and uniformly infected plants are selected and sprayed to run-off with emulsions freshly prepared from the formulation according to Example 42. Treatments are carried out with three doses (active ingredient 2.5, 5 and 10 ppm) and four parallels are used (one pot per parallel). The second, fourth and eighth day after treatment the aphids are swept down from the plants to a white paper with a fine brush and the live insects are counted.

tribolium confusum = experiment: Impregnated filter paper disc contact test, mortality (Table 1); type: in vivo, flour-beetle (tribolium confusum), imago; details: Tribolium confusum, 24 hours, Abbot corrected
Experimental: (§1) The stereoisomers are dissolved in a 1:2 mixture of mineral oil and acetone and filter paper discs (Whatman No. 1., diameter 9 cm) are impregnated with the corresponding dosage of the solution of the active ingredient. The acetone is allowed to evaporate and the insects are examined on filter paper discs placed into Petri-dishes. Three parallels are used for each dose and 15 animals are placed in each Petri-dish. Mortality rate is determined after 24 hours. The corrected mortality % data are calculated by means of the Abbot formula.

Acanthoscelides obtectus [1] = experiment: 5 EC formulations sprayed on glass plates (Table 21); type: in vivo, bean weevil (Acanthoscelides obtectus), imagos; details: 5 EC formulation, 24 hours
Lucilia sericata = experiment: Impregnated filter paper disc contact test, mortality (Table 1); type: in vivo, sheep maggot fly (Lucilia sericata), imago; details: Lucilia sericata, 24 hours, Abbot corrected
Experimental: as §1

L. decemlineata = experiment: 5 EC formulations sprayed on glass plates (Table 20); type: in vivo, imagos; details: 5 EC formulation, 48 hours
Experimental: The 5 EC formulations prepared according to Example 42 are diluted 50x, 100x, 200x, 400x, 800x and 1600x with water and 0.5 ml doses are sprayed onto glass plates. After drying 10 L. decemlineata imagos are placed on each glass plate and the insects are covered with Petri-dishes. The tests are carried out by using 6 doses and 3 parallels for each dose. The killed insects are counted after 48 hours.

A. matricariae [2] = experiment: Residual contact test on adults (Table 4); type: in vivo, Aphidinus matricariae, adult females
Experimental: Adults of A. matricariae are exposed to residues of the active ingredients freshly applied on glass plates forming cages then the survivors are counted.
Treatments: test products(s) and control treated with water.
Replicates: at least 3. Plot size (net) 1 cage.
Parasites of known age 24 hours are used.
The products are applied at 5-1 ppm concentration, to each of the glass plates.
10 females of A. matricariae are introduced into each cage and supplied with honey as food. The number of females surviving exposure is determined after 1.5 and 24 hours, in independent runs. Total number of survivors is calculated for each cage.

A. matricariae [3] = experiment: Direct contact test on pupae (Table 26); type: in vivo
Experimental: Mature pupae of A. matricariae on paprika leaves in Petri-dishes are exposed to a direct spray of the active ingredients. Two or three days before emergence paprika leaves with parasitized pupae are used. The leaves are laid on moistened filter paper in a plastic Petri-dish.
Application of treatment: See Example 57.
The pieces of leaf are transferred after treatment to clean Petri-dish bottoms. The trays are stored in a climatic chamber at 20° C. temperature, 70% relative humidity and a light-dark cycle of 16-8 h. Surviving pupae hatch after 2-3 days. The numbers of hatched and dead pupae are counted.

Acanthoscelides obtectus [4] = experiment: Impregnated filter paper disc contact test, mortality (Table 1); type: in vivo, bean weevil (Acanthoscelides obtectus), imago; details: Acanthoscelides obtectus, 24 hours, Abbot corrected
Experimental: as §1

[5] = Acute toxicity on rats and selectivity index; details: rat, in vivo
Excerpt: The said selectivity index of the enantiomer-pair Ia amounts to 50/0.45=111.
In addition to the synergistic effect the composition of the present invention has a number of further advantages too and for this reason it is an outstanding product. It is very important that the compositions of the present invention are less toxical towards mammals than the hitherto known compositions of similar efficiency. […] The said selectivity index of Ia amounts to 50/0.45=111.

Colorado potato beetle = experiment: Plot field test on Colorado potato beetle (Table 24); type: in vivo, adults; details: 10 g active ingredients/ha
Experimental: The treatments are performed on a 25 m^2 plot strongly infected with Colorado potato beetle. 10 plants per plot are specially marked on which the Colorado potato beetles were counted previously. (During assessment of the number of pests only adults of the second Summer generation are taken into consideration, because at the point of time of the test the ratio of larvae of stages L3 and L4 is negligible). Treatment is accomplished on 25 M^2 plots at a dose of 10 g of active ingredients/ha with aqueous suspensions of the formulations according to Example 37 and three parallels are used. The test is evaluated by counting the leave insects on the marked plants. The average values of three parallel tests are disclosed in Table 24.

In the case of `CC1(C)[C@H](C(=O)O[C@H](C#N)c2cccc(Oc3ccccc3)c2)[C@@H]1C=C(Cl)Cl` (relative stereo) [Ia], the “Average number of aphids per pot” value (Myzus persicae; 2.5 ppm, 2 days after treatment (control 1850)) is reported as 44, the “Average number of aphids per pot” value (Myzus persicae; 2.5 ppm, 4 days after treatment (control 2780)) is reported as 83 and the “Average number of aphids per pot” value (Myzus persicae; 2.5 ppm, 8 days after treatment (control 4120)) is reported as 245. The “Average number of aphids per pot” value (Myzus persicae; 5.0 ppm, 2 days after treatment (control 1850)) was 22, the “Average number of aphids per pot” value (Myzus persicae; 5.0 ppm, 4 days after treatment (control 2780)) was 29 and the “Average number of aphids per pot” value (Myzus persicae; 5.0 ppm, 8 days after treatment (control 4120)) was 90. The “Average number of aphids per pot” value (Myzus persicae; 10.0 ppm, 2 days after treatment (control 1850)) was 8, the “Average number of aphids per pot” value (Myzus persicae; 10.0 ppm, 4 days after treatment (control 2780)) was 17 and the “Average number of aphids per pot” value (Myzus persicae; 10.0 ppm, 8 days after treatment (control 4120)) was 30. For the same compound, the mortality at 20 µg/disc (tribolium confusum; 0.02 mg/disc) was 0%, the mortality at 70 µg/disc (tribolium confusum; 0.07 mg/disc) was 18% and the mortality at 220 µg/disc (tribolium confusum; 0.22 mg/disc) was 51%. For the same compound, the mortality at 670 µg/disc (tribolium confusum; 0.67 mg/disc) was 100%, the mortality at 2000 µg/disc (tribolium confusum; 2.0 mg/disc) was 100% and the mortality at 6000 µg/disc (tribolium confusum; 6.0 mg/disc) was 100%. The Mortality % (Acanthoscelides obtectus [1]; dilution 50x) was 70%, the Mortality % (Acanthoscelides obtectus [1]; dilution 100x) was 50% and the Mortality % (Acanthoscelides obtectus [1]; dilution 200x) was 33%. For the same compound, the Mortality % (Acanthoscelides obtectus [1]; dilution 400x) was 27%, the Mortality % (Acanthoscelides obtectus [1]; dilution 800x) was 13% and the Mortality % (Acanthoscelides obtectus [1]; dilution 1600x) was 0%. It also gave a mortality at 20 µg/disc (Lucilia sericata; 0.02 mg/disc) of 0%, a mortality at 70 µg/disc (Lucilia sericata; 0.07 mg/disc) of 30% and a mortality at 220 µg/disc (Lucilia sericata; 0.22 mg/disc) of 29%. The mortality at 670 µg/disc (Lucilia sericata; 0.67 mg/disc) was 57%, the mortality at 2000 µg/disc (Lucilia sericata; 2.0 mg/disc) was 60% and the mortality at 6000 µg/disc (Lucilia sericata; 6.0 mg/disc) was 65%. It also gave a Mortality % (L. decemlineata; dilution 50x) of 97%, a Mortality % (L. decemlineata; dilution 100x) of 87% and a Mortality % (L. decemlineata; dilution 200x) of 63%. The Mortality % (L. decemlineata; dilution 400x) was 53%, the Mortality % (L. decemlineata; dilution 800x) was 27% and the Mortality % (L. decemlineata; dilution 1600x) was 0%. It also gave a Mortality % (A. matricariae [2]; 1 ppm, 1h) of 100%, a Mortality % (A. matricariae [2]; 1 ppm, 5h) of 100% and a Mortality % (A. matricariae [2]; 1 ppm, 24h) of 96%. It also gave a Mortality % (A. matricariae [2]; 5 ppm, 1h) of 100%, a Mortality % (A. matricariae [3]; 1 ppm) of 0% and a Mortality % (A. matricariae [3]; 5 ppm) of 0%. It also gave a Mortality % (A. matricariae [3]; 10 ppm) of 12.5%, a Mortality % (A. matricariae [3]; 33 ppm) of 77.0% and a mortality at 20 µg/disc (Acanthoscelides obtectus [4]; 0.02 mg/disc) of 10%. The mortality at 70 µg/disc (Acanthoscelides obtectus [4]; 0.07 mg/disc) was 37%, the mortality at 220 µg/disc (Acanthoscelides obtectus [4]; 0.22 mg/disc) was 63% and the mortality at 670 µg/disc (Acanthoscelides obtectus [4]; 0.67 mg/disc) was 100%. For the same compound, the mortality at 2000 µg/disc (Acanthoscelides obtectus [4]; 2.0 mg/disc) was 100%, the mortality at 6000 µg/disc (Acanthoscelides obtectus [4]; 6.0 mg/disc) was 100% and the LD50 ([5]; po, rats, p.o., read-out: approximate LD50 toxicity) was ~50 mg/kg. The selectivity ratio ([5]; quotient of approximate LD50 values on rats and house fly) was 111, the “Average number of live insects/10 plants” value (Colorado potato beetle; 0 days after treatment (control 211)) was 171 and the “Average number of live insects/10 plants” value (Colorado potato beetle; 1 day after treatment (control 206)) was 11. The “Average number of live insects/10 plants” value (Colorado potato beetle; 3 days after treatment (control 179)) was 9 and the “Average number of live insects/10 plants” value (Colorado potato beetle; 9 days after treatment (control 183)) was 25.
